Measurements as given in US20220340983A1, “SYSTEMS AND ASSAYS FOR IDENTIFYING PU.1 INHIBITORS” (Massachustts Institute of Technology, priority 2019, published 2022).

Tests used:
PU.1 = molecular target: T1, PU.1 (Mus musculus, UniProt P17433); assay: Luciferase assay (luminescence) in BV2 PU.1-Luciferase reporter cells; assay type: cell-based; conditions: luminescence reduction in BV2 PU.1-Luciferase cells, concentration-response, Hill's equation
T1 construct: endogenous in cells; host or cells: BV2 PU.1-Luciferase (mouse microglial BV2 with a 5xLBB-luciferase reporter integrated at ROSA26)
From the text: PU.1 belongs to a group of transcription factors that all bind to the middle 5′-GGAA-3′ sequence. The flanking A/T rich sequence is crucial for conferring PU.1 selective binding. The flanking sequence requires unique structural properties of PU.1 and can therefore be targeted by drugs acting as allosteric inhibitors that prevent PU.1 from binding to the LBB. In order to achieve robust PU.1 binding, five tandem copies of the LBBs (5×LBB) were inserted into the luciferase promoter of the pGL4.23 plasmid. The region containing the five LBBs (5×LBB) was then subcloned into the pROSA26-1 plasmid (together with a PGKneo bpA plasmid for Neomycin/G418 resistance) that allows stable integration in chromosome 6 of the immortalized mouse microglial BV2 cell line (FIG. 2B). The stable cell line was created by selection with G418.
The BV2 PU.1-Luciferase cells (referred to as “cells” from here onward) were plated into a 384-well plate, using an automatic dispenser, 2000 cells per well in 30 μL of media composed of RPMI (Sigma-Aldrich), 10% FBS, 1% PenStrep (50 mg/mL) and 1% G418 (50 mg/mL) was plated. A robotic arm was used to transfer compounds in a 384-well format using a pin array into the plate containing the cells (here, 33 nL was transferred from a drug library containing 10 mM concentration of drugs for a final concentration of 10 μM per well). For reproducibility, each pin array with 384 compounds was added to 4 plates of cells. […] Subsequently, automatic of 30 μL of BrightGlo (Promega) was dispensed into 2 of the 4 plates, in order to lyse the cells and drive the luminescence reaction whereafter the luminescence intensity was measured by a plate reader (Perkin Elmer EnVision). The two other plates were fixed by automatically dispensing 30 μL of 10% formaldehyde with 2μL Hoechst per 1 mL formaldehyde which were left at room temperature for one hour, followed by plate reading (Acumen (TTPLabTech)). A compound transfer and treatment would be repeated if reproducibility between the luminescence plates and/or the fixed Hoechst plates was lacking. The drugs were selected and ranked according to the criteria described in FIG. 13. Luminescence values used were corrected for crosstalk. Hoechst values were total fluorescence area per well. Determination of a positive hit considered both the reduction of luminescence as well as a possible confounding reduction in cell viability. The formula used was y=(value−meanvalue)/stddev. […] Compounds were excluded if cell viability was reduced >2 standard deviations from the mean, using the same formula. The positive hits were then validated in multiple steps in order to identify true PU.1 inhibitors.
The degree of luminescence reduction of the hits was plotted with significant effective area under the curve in order to obtain an IC50.

[1] = system: PU.1 dependent gene expression; assay: RT-qPCR of mRNA levels in BV2 PU.1-Luciferase cells (validation round 3); assay type: cell-based, mouse; conditions: 2-day treatment
Method: The Asinex1 and ChemDiv6 libraries contain molecules with unknown biological properties, but with low toxicity, high stability, and a broad structural diversity used to generate structure-activity-relationships (SAR) of the PU.1 inhibitors. […] In order to obtain the SAR, three rounds of validation were performed. In round 1, false-positive, non-specific luciferase quencher molecules were excluded using the commercially available HEK293 CMV-Luciferase line that constitutively expresses luciferase under the CMV promoter. In round 2, weak (non-significant) hits were eliminated according to degree of PU.1 inhibition in the absence of cell death. In round 3, drugs were selected that reduce PU.1-dependent gene expression with RT-qPCR.

Q: Which IC50 (PU.1) does the source give for `CCOC(=O)Cn1c(=O)n(C2CCCCC2)c2nc(-c3cccc(F)c3)nc(C(N)=O)c21` [Compound 2E4] here?
A: 136 nM

Q: And the “mRNA levels Apoe” value [1]?
A: 0.841 multiples of 1×

Q: What about the “mRNA levels IL1β” value [1] of the same molecule?
A: 1.077 multiples of 1×

Q: What about the “mRNA levels Lucif.” value [1] of the same molecule?
A: 0.404 multiples of 1×

Q: And the “mRNA levels Spi1” value [1]?
A: 1.377 multiples of 1×

Q: And the “mRNA levels Trem2” value [1]?
A: 0.806 multiples of 1×

Q: And the “mRNA levels Tyrobp” value [1]?
A: 1.141 multiples of 1×

Q: Which results are given for `CCOC(=O)c1oc2ccc(S(=O)(=O)n3nc(-c4ccccc4OC)cc3N)cc2c1C` [Compound 1H7]?
A: IC50 (PU.1): 2370 nM; mRNA levels Apoe [1]: 0.908 multiples of 1×; mRNA levels IL1β [1]: 1.017 multiples of 1×; mRNA levels Lucif. [1]: 0.524 multiples of 1×; mRNA levels Spi1 [1]: 1.022 multiples of 1×; mRNA levels Trem2 [1]: 1.100 multiples of 1×; mRNA levels Tyrobp [1]: 1.011 multiples of 1×

Q: Which results are given for `Cc1ccc(C(=O)Nc2nnc(SCc3cc(=O)c4c(C)ccc(C)c4[nH]3)s2)cc1` [Compound 2E7]?
A: IC50 (PU.1): 8050 nM; mRNA levels Apoe [1]: 1.076 multiples of 1×; mRNA levels IL1β [1]: 0.887 multiples of 1×; mRNA levels Lucif. [1]: 0.623 multiples of 1×; mRNA levels Spi1 [1]: 0.926 multiples of 1×; mRNA levels Trem2 [1]: 0.854 multiples of 1×; mRNA levels Tyrobp [1]: 0.927 multiples of 1×

Q: What does the source list for `CC(=NCCCn1ccnc1)c1c(C(F)(F)F)[nH]n(-c2nc3ccccc3s2)c1=O` [Compound E01]?
A: IC50 (PU.1): 663 nM; mRNA levels Apoe [1]: 0.823 multiples of 1×; mRNA levels IL1β [1]: 0.986 multiples of 1×; mRNA levels Lucif. [1]: 0.416 multiples of 1×; mRNA levels Spi1 [1]: 0.912 multiples of 1×; mRNA levels Trem2 [1]: 0.903 multiples of 1×; mRNA levels Tyrobp [1]: 0.988 multiples of 1×

Q: Which IC50 (PU.1) does the source give for `COc1cc(NS(=O)(=O)c2ccc3c(c2)CCN3S(C)(=O)=O)cc(OC)c1` [Compound 2F5] here?
A: 3540 nM

Q: What about the “mRNA levels Apoe” value [1] of the same molecule?
A: 0.790 multiples of 1×

Q: And the “mRNA levels IL1β” value [1]?
A: 0.767 multiples of 1×

Q: What about the “mRNA levels Lucif.” value [1] of the same molecule?
A: 0.590 multiples of 1×

Q: What about the “mRNA levels Spi1” value [1] of the same molecule?
A: 0.783 multiples of 1×

Q: And the “mRNA levels Trem2” value [1]?
A: 0.901 multiples of 1×

Q: What about the “mRNA levels Tyrobp” value [1] of the same molecule?
A: 0.985 multiples of 1×

Q: For `CC(C)c1ccc(NC(=O)Cn2c(=O)oc3cc(S(=O)(=O)N4CCCC4)ccc32)cc1` [Compound 2A9], which IC50 (PU.1) is on record?
A: 2570 nM

Q: And the “mRNA levels Apoe” value [1]?
A: 0.988 multiples of 1×

Q: What about the “mRNA levels IL1β” value [1] of the same molecule?
A: 1.048 multiples of 1×

Q: What about the “mRNA levels Lucif.” value [1] of the same molecule?
A: 0.391 multiples of 1×

Q: What about the “mRNA levels Spi1” value [1] of the same molecule?
A: 1.073 multiples of 1×

Q: And the “mRNA levels Trem2” value [1]?
A: 0.958 multiples of 1×

Q: And the “mRNA levels Tyrobp” value [1]?
A: 1.059 multiples of 1×

Q: What does the source list for `CCOC(=O)O[C@]1(C(=O)OCCl)CC[C@H]2[C@@H]3CCC4=CC(=O)C=C[C@]4(C)[C@H]3[C@@H](O)C[C@@]21C` [Loteprednol, reference compound]?
A: IC50 (PU.1): 3 nM; mRNA levels Apoe [1]: 1.579 multiples of 1×; mRNA levels IL1β [1]: 0.805 multiples of 1×; mRNA levels Lucif. [1]: 0.265 multiples of 1×; mRNA levels Spi1 [1]: 1.167 multiples of 1×; mRNA levels Trem2 [1]: 0.979 multiples of 1×; mRNA levels Tyrobp [1]: 0.927 multiples of 1×

Q: With `CCCCN(c1ccccc1)c1ncnc2c1cnn2-c1ccc(Cl)cc1` [Compound 2G8] as the molecule, how does the IC50 (PU.1) read?
A: 967 nM

Q: What about the “mRNA levels Apoe” value [1] of the same molecule?
A: 1.119 multiples of 1×

Q: What about the “mRNA levels IL1β” value [1] of the same molecule?
A: 1.362 multiples of 1×

Q: What about the “mRNA levels Lucif.” value [1] of the same molecule?
A: 0.497 multiples of 1×

Q: What about the “mRNA levels Spi1” value [1] of the same molecule?
A: 1.179 multiples of 1×

Q: And the “mRNA levels Trem2” value [1]?
A: 1.237 multiples of 1×

Q: And the “mRNA levels Tyrobp” value [1]?
A: 1.469 multiples of 1×

Q: What does the source list for `CCOc1ccc(-c2nc(CSCC(=O)NCc3ccc(Cl)cc3)c(C)o2)cc1` [Compound 2H3]?
A: IC50 (PU.1): 734 nM; mRNA levels Apoe [1]: 1.111 multiples of 1×; mRNA levels IL1β [1]: 0.915 multiples of 1×; mRNA levels Lucif. [1]: 0.722 multiples of 1×; mRNA levels Spi1 [1]: 0.897 multiples of 1×; mRNA levels Trem2 [1]: 0.986 multiples of 1×; mRNA levels Tyrobp [1]: 1.003 multiples of 1×

Q: For `Cc1c(Cl)cccc1-n1ncc(C(=O)Nc2ccc3c(c2)OCCO3)c1C1CCN(C(=O)OC(C)(C)C)CC1` [Compound 2D3], which IC50 (PU.1) is on record?
A: 2650 nM

Q: What about the “mRNA levels Apoe” value [1] of the same molecule?
A: 0.980 multiples of 1×

Q: And the “mRNA levels IL1β” value [1]?
A: 0.960 multiples of 1×

Q: What about the “mRNA levels Lucif.” value [1] of the same molecule?
A: 0.480 multiples of 1×

Q: And the “mRNA levels Spi1” value [1]?
A: 0.922 multiples of 1×

Q: What about the “mRNA levels Trem2” value [1] of the same molecule?
A: 0.987 multiples of 1×

Q: And the “mRNA levels Tyrobp” value [1]?
A: 0.950 multiples of 1×

Q: What does the source list for `CCn1c(=O)c2cc(C(=O)Nc3cc(OC)c(OC)c(OC)c3)sc2c2ccccc21` [Compound 1G9]?
A: IC50 (PU.1): 2290 nM; mRNA levels Apoe [1]: 1.217 multiples of 1×; mRNA levels IL1β [1]: 0.582 multiples of 1×; mRNA levels Lucif. [1]: 0.485 multiples of 1×; mRNA levels Spi1 [1]: 0.989 multiples of 1×; mRNA levels Trem2 [1]: 0.713 multiples of 1×; mRNA levels Tyrobp [1]: 1.053 multiples of 1×

Q: Which results are given for `CC(=O)c1c(C)oc2ccc(N(C(=O)Oc3ccccc3)S(=O)(=O)c3ccc(C(C)(C)C)cc3)cc12` [Compound 1A2]?
A: IC50 (PU.1): 2280 nM; mRNA levels Apoe [1]: 0.858 multiples of 1×; mRNA levels IL1β [1]: 1.054 multiples of 1×; mRNA levels Lucif. [1]: 0.324 multiples of 1×; mRNA levels Spi1 [1]: 0.915 multiples of 1×; mRNA levels Trem2 [1]: 1.073 multiples of 1×; mRNA levels Tyrobp [1]: 1.093 multiples of 1×

Q: With `CC(C)(C)OC(=O)N1CCC(c2c(C(=O)Nc3ccc4c(c3)OCCO4)cnn2-c2ccccc2)CC1` [Compound 2C12] as the molecule, how does the IC50 (PU.1) read?
A: 2930 nM

Q: And the “mRNA levels Apoe” value [1]?
A: 0.731 multiples of 1×

Q: What about the “mRNA levels IL1β” value [1] of the same molecule?
A: 0.486 multiples of 1×

Q: What about the “mRNA levels Lucif.” value [1] of the same molecule?
A: 0.597 multiples of 1×

Q: What about the “mRNA levels Spi1” value [1] of the same molecule?
A: 0.736 multiples of 1×

Q: And the “mRNA levels Trem2” value [1]?
A: 0.752 multiples of 1×

Q: What about the “mRNA levels Tyrobp” value [1] of the same molecule?
A: 0.713 multiples of 1×

Q: Which results are given for `C[C@@H]1C[C@H]2[C@@H]3CCC4=CC(=O)C=C[C@]4(C)[C@@]3(Cl)[C@@H](O)C[C@]2(C)[C@@]1(O)C(=O)CCl` [Mometasone, reference compound]?
A: IC50 (PU.1): 3 nM; mRNA levels Apoe [1]: 1.444 multiples of 1×; mRNA levels IL1β [1]: 0.531 multiples of 1×; mRNA levels Lucif. [1]: 0.520 multiples of 1×; mRNA levels Spi1 [1]: 1.016 multiples of 1×; mRNA levels Trem2 [1]: 1.051 multiples of 1×; mRNA levels Tyrobp [1]: 1.343 multiples of 1×

Q: Which results are given for `CCOc1ccc(S(=O)(=O)NCc2ccncc2)cc1C(C)C` [Compound D09]?
A: IC50 (PU.1): 38 nM; mRNA levels Apoe [1]: 0.390 multiples of 1×; mRNA levels IL1β [1]: 0.938 multiples of 1×; mRNA levels Lucif. [1]: 0.360 multiples of 1×; mRNA levels Spi1 [1]: 0.781 multiples of 1×; mRNA levels Trem2 [1]: 0.437 multiples of 1×; mRNA levels Tyrobp [1]: 0.496 multiples of 1×
